Experimental data published in US20060128724A1, “Pyrazole-substituted aminoheteroaryl compounds as protein kinase inhibitors” (AGOURON PHARMACEUTICALS, INC., priority 2004, published 2006).

Biological target: T1, c-MET (HGFR) (Homo sapiens, UniProt P08581)
T1 construct: purchased Upstate 14-526
Test: HGFR Continuous-Coupled Spectrophotometric Assay
Type: biochemical
Details: Met-2 substrate peptide, 50 nM HGFR, 37° C.; read-out: c-Met Ki
Outline: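 Tyrosine kinase activity of 50 nM HGFR on the activation-loop Met-2 peptide, followed as NADH consumption at 340 nm over 10 min at 37 °C in a pyruvate kinase/LDH coupled system, HEPES pH 7.5 buffer with MgCl2 and DTT.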

T1 sequence (P08581 974-1390 limits assumed): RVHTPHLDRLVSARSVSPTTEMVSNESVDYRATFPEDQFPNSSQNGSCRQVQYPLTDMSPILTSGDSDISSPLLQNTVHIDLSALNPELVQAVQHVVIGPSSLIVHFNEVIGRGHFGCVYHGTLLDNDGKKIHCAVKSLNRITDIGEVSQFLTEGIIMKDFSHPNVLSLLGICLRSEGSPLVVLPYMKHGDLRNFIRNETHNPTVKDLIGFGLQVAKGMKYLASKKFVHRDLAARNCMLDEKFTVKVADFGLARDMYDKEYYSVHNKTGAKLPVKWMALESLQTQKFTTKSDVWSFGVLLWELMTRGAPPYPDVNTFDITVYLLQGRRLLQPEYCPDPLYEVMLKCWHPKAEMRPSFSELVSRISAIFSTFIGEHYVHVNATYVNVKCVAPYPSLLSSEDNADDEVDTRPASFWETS

Row | SMILES | Ki [µM]
1 | CCOC(=O)c1cnn(-c2cnc(N)c(OC(C)c3c(Cl)ccc(F)c3Cl)c2)c1 (stereo not shown) [Example 80, 1-{6-Amino-5-[1-(2,6-dichloro-3-fluoro-phenyl)-ethoxy]-pyridin-3-yl}-1H-pyrazole-4-carboxylic acid ethyl ester] | 2.05
2 | CC(Oc1cc(-c2cnn(CC3CCNCC3)c2)cnc1N)c1c(Cl)ccc(F)c1Cl (stereo not shown) [Example 81, 3-[1-(2,6-Dichloro-3-fluoro-phenyl)-ethoxy]-5-(1-piperidin-4-ylmethyl-1H-pyrazol-4-yl)-pyridin-2-ylamine] | 0.056
3 | CC(Oc1cc(-c2cnn(CCN3CCNCC3)c2)cnc1N)c1c(Cl)ccc(F)c1Cl (stereo not shown) [Example 82, 3-[1-(2,6-Dichloro-3-fluoro-phenyl)-ethoxy]-5-[1-(2-piperazin-1-yl-ethyl)-1H-pyrazol-4-yl]-pyridin-2-ylamine] | 0.047
4 | CC(Oc1cc(-c2cnn(CCO)c2)cnc1N)c1c(Cl)ccc(F)c1Cl (stereo not shown) [Example 83, 2-(4-{6-Amino-5-[1-(2,6-dichloro-3-fluoro-phenyl)-ethoxy]-pyridin-3-yl}-pyrazol-1-yl)-ethanol] | 0.046
5 | CC(Oc1cc(-c2cnn(CC3COCO3)c2)cnc1N)c1c(Cl)ccc(F)c1Cl (stereo not shown) [Example 84, 3-[1-(2,6-Dichloro-3-fluoro-phenyl)-ethoxy]-5-(1-[1,3]dioxolan-4-ylmethyl-1H-pyrazol-4-yl)-pyridin-2-ylamine] | 0.061
6 | CC(Oc1cc(-c2cnn(CC3CCN(C(=O)CO)CC3)c2)cnc1N)c1c(Cl)ccc(F)c1Cl (stereo not shown) [Example 85, 1-[4-(4-{6-Amino-5-[1-(2,6-dichloro-3-fluoro-phenyl)-ethoxy]-pyridin-3-yl}-pyrazol-1-ylmethyl)-piperidin-1-yl]-2-hydroxy-ethanone] | 0.03
7 | COC(=O)C1CC(n2cc(-c3cnc(N)c(OC(C)c4c(Cl)ccc(F)c4Cl)c3)cn2)CN1 (stereo not shown) [Example 88, 4-(4-{6-Amino-5-[1-(2,6-dichloro-3-fluoro-phenyl)-ethoxy]-pyridin-3-yl}-pyrazol-1-yl)-pyrrolidine-2-carboxylic acid methyl ester] | 0.034
8 | CC(Oc1cc(-c2cnn(CC3CCN(C)CC3)c2)cnc1N)c1c(Cl)ccc(F)c1Cl (stereo not shown) [Example 89, 3-[1-(2,6-Dichloro-3-fluoro-phenyl)-ethoxy]-5-[1-(1-methyl-piperidin-4-ylmethyl)-1H-pyrazol-4-yl]-pyridin-2-ylamine] | 0.024
9 | CNC(=O)C1CC(n2cc(-c3cnc(N)c(OC(C)c4c(Cl)ccc(F)c4Cl)c3)cn2)CN1 (stereo not shown) [Example 90, 4-(4-{6-Amino-5-[1-(2,6-dichloro-3-fluoro-phenyl)-ethoxy]-pyridin-3-yl}-pyrazol-1-yl)-pyrrolidine-2-carboxylic acid methylamide] | 0.034
10 | CC(Oc1cc(-c2cnn(C3CNC(C(N)=O)C3)c2)cnc1N)c1c(Cl)ccc(F)c1Cl (stereo not shown) [Example 91, 4-(4-{6-Amino-5-[1-(2,6-dichloro-3-fluoro-phenyl)-ethoxy]-pyridin-3-yl}pyrazol-1-yl)-pyrrolidine-2-carboxylic acid amide] | 0.044
11 | Cc1noc(C)c1Cn1cc(-c2cnc(N)c(OC(C)c3c(Cl)ccc(F)c3Cl)c2)cn1 (stereo not shown) [Example 93, 3-[1-(2,6-dichloro-3-fluorophenyl)ethoxy]-5-{1-[(3,5-dimethylisoxazol-4-yl)methyl]-1H-pyrazol-4-yl}pyridin-2-amine] | 0.069
12 | CC(Oc1cc(-c2cnn(C3CCN(C(=O)OC(C)(C)C)CC3)c2)cnc1N)c1c(Cl)ccc(F)c1Cl (stereo not shown) [Example 94, tert-butyl 4-(4-{6-amino-5-[1-(2,6-dichloro-3-fluorophenyl)ethoxy]pyridin-3-yl}-1H-pyrazol-1-yl)piperidine-1-carboxylate] | 0.035
13 | CC(Oc1cc(-c2cnn(C3CCN(C(=O)OCCO)CC3)c2)cnc1N)c1c(Cl)ccc(F)c1Cl (stereo not shown) [Example 95, 2-hydroxyethyl 4-(4-{6-amino-5-[1-(2,6-dichloro-3-fluorophenyl)ethoxy]pyridin-3-yl}-1H-pyrazol-1-yl)piperidine-1-carboxylate] | 0.01
